Results as given in ChEMBL document CHEMBL1140771, “Heteroallyl-containing 5-nitrofuranes as new anti-Trypanosoma cruzi agents with a dual mechanism of action” (Bioorg Med Chem, 2008).
≈ marks a conversion by molar mass, not a printed value.

Experiments:
Trypanosoma cruzi [1] = test: Antitrypanosomal activity against Trypanosoma cruzi EP amastigotes; format: functional, organism-based
Trypanosoma cruzi [2] = test: Inhibition of sterol biosynthesis in Trypanosoma cruzi EP epimastigotes assessed as endogenous squalene levels at 10 uM after 120 hrs; format: functional; set-up: scale not given: the % may be the effect or the level left
Trypanosoma cruzi [3] = test: Antitrypanosomal activity against Trypanosoma cruzi EP epimastigotes after 96 hrs; format: functional
Trypanosoma cruzi [4] = test: Effect on oxygen uptake in Trypanosoma cruzi Y epimastigotes assessed as rate of oxygen consumption at 80 uM relative to control; format: functional
Trypanosoma cruzi [5] = test: Effect on oxygen redox cycling in Trypanosoma cruzi Y epimastigotes assessed as rate of oxygen consumption at 120 uM in presence of cyanide relative to control; format: functional
Trypanosoma cruzi [6] = test: Effect on oxygen redox cycling in Trypanosoma cruzi Y epimastigotes assessed as rate of oxygen consumption at 80 uM in presence of cyanide relative to control; format: functional
Vero = test: Cytotoxicity against african green monkey Vero cells; format: cell-based; conditions: Chlorocebus sabaeus
Trypanosoma cruzi [7] = test: Inhibition of sterol biosynthesis in Trypanosoma cruzi EP epimastigotes assessed as exogenous cholesterol levels at 10 uM after 120 hrs; format: functional; set-up: scale not given: the % may be the effect or the level left
Trypanosoma cruzi [8] = test: Effect on oxygen uptake in Trypanosoma cruzi Y epimastigotes assessed as rate of oxygen consumption at 120 uM relative to control; format: functional
Trypanosoma cruzi [9] = test: Antitrypanosomal activity against Trypanosoma cruzi EP amastigotes in Vero cells after 96 hrs; format: functional
Trypanosoma cruzi [10] = test: Antitrypanosomal activity against Trypanosoma cruzi Y epimastigotes after 48 hrs by MTT assay; format: functional, organism-based
Trypanosoma cruzi [11] = test: Inhibition of sterol biosynthesis in Trypanosoma cruzi EP epimastigotes assessed as exogenous cholesterol levels at 30 uM after 120 hrs; format: functional; set-up: scale not given: the % may be the effect or the level left
Trypanosoma cruzi [12] = test: Inhibition of sterol biosynthesis in Trypanosoma cruzi EP epimastigotes assessed as ergosta-5,7-24(24')-trien-3beta-ol levels at 30 uM after 120 hrs; format: functional; set-up: scale not given: the % may be the effect or the level left
Trypanosoma cruzi [13] = test: Inhibition of sterol biosynthesis in Trypanosoma cruzi EP epimastigotes assessed as ergosta-5,7-dien-3beta-ol levels at 30 uM after 120 hrs; format: functional; set-up: scale not given: the % may be the effect or the level left
Trypanosoma cruzi [14] = test: Inhibition of sterol biosynthesis in Trypanosoma cruzi EP epimastigotes assessed as 24-ethyl-5,7,22-cholestatrien-3beta-ol levels at 30 uM after 120 hrs; format: functional; set-up: scale not given: the % may be the effect or the level left
Trypanosoma cruzi [15] = test: Inhibition of sterol biosynthesis in Trypanosoma cruzi EP epimastigotes assessed as ergosterol levels at 30 uM after 120 hrs; format: functional; set-up: scale not given: the % may be the effect or the level left
Trypanosoma cruzi [16] = test: Inhibition of sterol biosynthesis in Trypanosoma cruzi EP epimastigotes assessed as endogenous squalene levels at 30 uM after 120 hrs; format: functional; set-up: scale not given: the % may be the effect or the level left
Trypanosoma cruzi [17] = test: Inhibition of sterol biosynthesis in Trypanosoma cruzi EP epimastigotes assessed as endogenous squalene levels at 3 uM after 120 hrs; format: functional; set-up: scale not given: the % may be the effect or the level left
Trypanosoma cruzi [18] = test: Inhibition of sterol biosynthesis in Trypanosoma cruzi EP epimastigotes assessed as 24-ethyl-5,7,22-cholestatrien-3beta-ol levels at 3 uM after 120 hrs; format: functional; set-up: scale not given: the % may be the effect or the level left
Trypanosoma cruzi [19] = test: Inhibition of sterol biosynthesis in Trypanosoma cruzi EP epimastigotes assessed as 24-ethyl-5,7-cholestadien-3beta-ol levels at 3 uM after 120 hrs; format: functional; set-up: scale not given: the % may be the effect or the level left
Trypanosoma cruzi [20] = test: Inhibition of sterol biosynthesis in Trypanosoma cruzi EP epimastigotes assessed as exogenous cholesterol levels at 3 uM after 120 hrs; format: functional; set-up: scale not given: the % may be the effect or the level left
Trypanosoma cruzi [21] = test: Effect on oxygen uptake in Trypanosoma cruzi Y epimastigotes assessed as rate of oxygen consumption at 60 uM relative to control; format: functional
Trypanosoma cruzi [22] = test: Inhibition of sterol biosynthesis in Trypanosoma cruzi EP epimastigotes assessed as ergosta-5,7-dien-3beta-ol levels at 3 uM after 120 hrs; format: functional; set-up: scale not given: the % may be the effect or the level left
Trypanosoma cruzi [23] = test: Inhibition of sterol biosynthesis in Trypanosoma cruzi EP epimastigotes assessed as ergosterol levels at 3 uM after 120 hrs; format: functional; set-up: scale not given: the % may be the effect or the level left
Trypanosoma cruzi [24] = test: Inhibition of sterol biosynthesis in Trypanosoma cruzi EP epimastigotes assessed as ergosta-5,7-24(24')-trien-3beta-ol levels at 3 uM after 120 hrs; format: functional; set-up: scale not given: the % may be the effect or the level left
Trypanosoma cruzi [25] = test: Effect on oxygen redox cycling in Trypanosoma cruzi Y epimastigotes assessed as rate of oxygen consumption at 60 uM in presence of cyanide relative to control; format: functional
Trypanosoma cruzi [26] = test: Inhibition of sterol biosynthesis in Trypanosoma cruzi EP epimastigotes assessed as ergosterol levels at 10 uM after 120 hrs; format: functional; set-up: scale not given: the % may be the effect or the level left
Trypanosoma cruzi [27] = test: Effect on oxygen redox cycling in Trypanosoma cruzi Y epimastigotes assessed as rate of oxygen consumption at 166 uM in presence of cyanide relative to control; format: functional
Trypanosoma cruzi [28] = test: Effect on oxygen uptake in Trypanosoma cruzi Y epimastigotes assessed as rate of oxygen consumption at 166 uM relative to control; format: functional
Trypanosoma cruzi [29] = test: Inhibition of sterol biosynthesis in Trypanosoma cruzi EP epimastigotes assessed as 24-ethyl-5,7-cholestadien-3beta-ol levels at 10 uM after 120 hrs; format: functional; set-up: scale not given: the % may be the effect or the level left
Trypanosoma cruzi [30] = test: Inhibition of sterol biosynthesis in Trypanosoma cruzi EP epimastigotes assessed as ergosta-5,7-24(24')-trien-3beta-ol levels at 10 uM after 120 hrs; format: functional; set-up: scale not given: the % may be the effect or the level left
Trypanosoma cruzi [31] = test: Inhibition of sterol biosynthesis in Trypanosoma cruzi EP epimastigotes assessed as ergosta-5,7-dien-3beta-ol levels at 10 uM after 120 hrs; format: functional; set-up: scale not given: the % may be the effect or the level left

Row | SMILES | IC50 (Trypanosoma cruzi [1]) [µM] | Activity (Trypanosoma cruzi [2]) [%] | MIC (Trypanosoma cruzi [3]) [µM] | IC50 (Vero) [µM] | Activity (Trypanosoma cruzi [7]) [%] | MIC (Trypanosoma cruzi [9]) [µM] | IC50 (Trypanosoma cruzi [10]) [µM] | Activity (Trypanosoma cruzi [11]) [%] | Activity (Trypanosoma cruzi [14]) [%] | Activity (Trypanosoma cruzi [15]) [%] | Activity (Trypanosoma cruzi [16]) [%] | Activity (Trypanosoma cruzi [17]) [%] | Activity (Trypanosoma cruzi [18]) [%] | Activity (Trypanosoma cruzi [20]) [%] | Activity (Trypanosoma cruzi [22]) [%] | Activity (Trypanosoma cruzi [23]) [%] | other results
1 | C=C(C)CNC(=O)N/N=C/c1ccc([N+](=O)[O-])o1 | 0.9 | 68.1 | 10 (≈ 2.52 µg/mL) | 32.1 | 31.9 | 10 (≈ 2.52 µg/mL) | 3.8 | – | – | – | – | – | – | – | – | – | Activity (Trypanosoma cruzi [4]): 110%; Activity (Trypanosoma cruzi [5]): 27%; Activity (Trypanosoma cruzi [6]): 33%; Activity (Trypanosoma cruzi [8]): 148%
2 | C=CCOC(=O)N/N=C/C=C/c1ccc([N+](=O)[O-])o1 | – | – | > 30 | – | – | – | – | 29.4 | 10.6 | 15 | 36.4 | – | – | – | – | – | Activity (Trypanosoma cruzi [12]): 4%; Activity (Trypanosoma cruzi [13]): 4.6%
3 | O=C(N/N=C/c1ccc([N+](=O)[O-])o1)Oc1ccccc1 | 2.3 | 60.6 | 10 (≈ 2.75 µg/mL) | 19.4 | 35 | 30 (≈ 8.26 µg/mL) | 10.6 | – | – | – | – | 39.1 | 9 | 32.3 | 6 | 7.6 | Activity (Trypanosoma cruzi [19]): 3.6%; Activity (Trypanosoma cruzi [21]): 105%; Activity (Trypanosoma cruzi [24]): 2.4%; Activity (Trypanosoma cruzi [25]): 31%; Activity (Trypanosoma cruzi [26]): 4.4%
4 | O=C(N/N=C/C=C/c1ccc([N+](=O)[O-])o1)Oc1ccccc1 | 0.31 | 91.9 | 3 (≈ 0.904 µg/mL) | 9.1 | 8.1 | 3 (≈ 0.904 µg/mL) | 6.7 | – | – | – | – | 45.2 | – | 46.9 | – | 7.9 | Activity (Trypanosoma cruzi [27]): 8%; Activity (Trypanosoma cruzi [28]): 88%
5 | C=C(C)CNC(=O)N/N=C/C=C/c1ccc([N+](=O)[O-])o1 | – | 90.8 | 10 (≈ 2.78 µg/mL) | – | 9.2 | – | – | – | – | – | – | 44.4 | 10.8 | 20.3 | 6.1 | 18.4 | –
6 | O=C(N/N=C/C=C/c1ccc([N+](=O)[O-])o1)OC/C=C/c1ccccc1 | 0.65 | 93.3 | 10 (≈ 3.41 µg/mL) | 11.1 | 6.7 | 10 (≈ 3.41 µg/mL) | 3.7 | – | – | – | – | 19 | 16 | 33.9 | 8 | 21 | Activity (Trypanosoma cruzi [29]): 6.7%; Activity (Trypanosoma cruzi [4]): 89%; Activity (Trypanosoma cruzi [5]): 40%; Activity (Trypanosoma cruzi [6]): 38%; Activity (Trypanosoma cruzi [8]): 160%; Activity (Trypanosoma cruzi [24]): 2.1%
7 | C=CCOC(=O)N/N=C/c1ccc([N+](=O)[O-])o1 | – | – | 30 (≈ 7.18 µg/mL) | – | – | – | – | 53.1 | 6.8 | 7 | 33.1 | – | – | – | – | – | –
8 | O=C(N/N=C/c1ccc([N+](=O)[O-])o1)OC/C=C/c1ccccc1 | – | 16 | 30 (≈ 9.46 µg/mL) | – | 52.5 | – | – | 22 | 7.8 | 5.8 | 64.4 | – | – | – | – | – | Activity (Trypanosoma cruzi [30]): 2.3%; Activity (Trypanosoma cruzi [31]): 5%; Activity (Trypanosoma cruzi [26]): 10.4%
